The values that follow come from ChEMBL document CHEMBL1146654, “3-(7-Azaindolyl)-4-arylmaleimides as potent, selective inhibitors of glycogen synthase kinase-3” (Bioorg Med Chem Lett, 2004).

Test [1] concerns the target Cyclin-dependent kinase 2/cyclin A (Homo sapiens, UniProt P24941). The test is described as follows: Inhibition of Cyclin-dependent kinase 2-cyclin A. Format: protein-complex assay.
Test [2] concerns the target Fibroblast growth factor receptor 3 (Homo sapiens) (UniProt P22607). As to the kind of experiment: Inhibition of Fibroblast growth factor receptor 3. On the set-up: scale not given: the % may be the effect or the level left.
The target of test [3] is Tyrosine-protein kinase Fyn (Homo sapiens) (UniProt P06241). The test is described as follows: Inhibition of Fyn protein kinase. On the set-up: scale not given: the % may be the effect or the level left.
Sequence of Tyrosine-protein kinase Fyn (Homo sapiens) (P06241 2-537 limits assumed): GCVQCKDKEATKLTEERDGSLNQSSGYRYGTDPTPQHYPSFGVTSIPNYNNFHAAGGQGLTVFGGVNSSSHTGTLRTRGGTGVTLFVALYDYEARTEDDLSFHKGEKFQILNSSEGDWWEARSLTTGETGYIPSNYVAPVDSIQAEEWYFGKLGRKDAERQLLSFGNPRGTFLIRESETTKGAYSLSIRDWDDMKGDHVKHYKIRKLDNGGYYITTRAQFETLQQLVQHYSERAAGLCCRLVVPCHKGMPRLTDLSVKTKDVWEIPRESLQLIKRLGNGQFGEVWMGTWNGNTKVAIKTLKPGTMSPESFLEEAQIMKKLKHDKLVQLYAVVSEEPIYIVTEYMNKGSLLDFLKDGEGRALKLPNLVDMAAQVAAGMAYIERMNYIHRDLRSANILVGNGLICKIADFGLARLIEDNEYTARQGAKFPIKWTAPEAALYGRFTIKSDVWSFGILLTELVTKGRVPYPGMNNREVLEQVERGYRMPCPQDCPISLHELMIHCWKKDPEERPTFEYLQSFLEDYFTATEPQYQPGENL
Test [4] addresses Glycogen synthase kinase-3 beta (Homo sapiens, UniProt P49841). The test is described as follows: Inhibition of glycogen synthase kinase-3 beta. Further details: scale not given: the % may be the effect or the level left.
In test [5] the target is Insulin receptor (Homo sapiens) (UniProt P06213). The test is described as follows: Inhibition of IR kinase. Further details: scale not given: the % may be the effect or the level left.
Test [6] addresses Dual specificity mitogen-activated protein kinase kinase 1 (Homo sapiens) (UniProt Q02750). As to the kind of experiment: Inhibition of mitogen activated protein kinase kinase 1. Further details: scale not given: the % may be the effect or the level left.
Test [7] addresses T1, Dual specificity mitogen-activated protein kinase kinase 7 (Homo sapiens) (UniProt O14733).
T1 sequence (whole entry): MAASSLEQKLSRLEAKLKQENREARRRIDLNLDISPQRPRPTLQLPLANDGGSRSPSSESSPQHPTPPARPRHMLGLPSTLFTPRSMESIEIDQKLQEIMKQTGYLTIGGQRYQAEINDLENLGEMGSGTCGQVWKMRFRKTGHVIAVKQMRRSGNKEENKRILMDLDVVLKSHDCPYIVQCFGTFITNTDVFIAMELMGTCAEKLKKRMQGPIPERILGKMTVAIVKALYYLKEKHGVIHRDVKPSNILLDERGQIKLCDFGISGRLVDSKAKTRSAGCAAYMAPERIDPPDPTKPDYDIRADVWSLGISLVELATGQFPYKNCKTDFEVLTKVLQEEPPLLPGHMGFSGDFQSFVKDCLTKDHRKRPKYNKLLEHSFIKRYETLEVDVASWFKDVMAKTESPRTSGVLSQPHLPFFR
The test is described as follows: Inhibition of Mitogen activated protein kinase kinase 7 beta. Further details: scale not given: the % may be the effect or the level left.

The target of test [8] is Protein kinase C alpha type (Homo sapiens, UniProt P17252). The test is described as follows: Inhibition of PKCalpha. Further details: scale not given: the % may be the effect or the level left.
Test [9] addresses T2, Protein kinase C epsilon type (Homo sapiens) (UniProt Q02156).
T2 sequence (whole entry): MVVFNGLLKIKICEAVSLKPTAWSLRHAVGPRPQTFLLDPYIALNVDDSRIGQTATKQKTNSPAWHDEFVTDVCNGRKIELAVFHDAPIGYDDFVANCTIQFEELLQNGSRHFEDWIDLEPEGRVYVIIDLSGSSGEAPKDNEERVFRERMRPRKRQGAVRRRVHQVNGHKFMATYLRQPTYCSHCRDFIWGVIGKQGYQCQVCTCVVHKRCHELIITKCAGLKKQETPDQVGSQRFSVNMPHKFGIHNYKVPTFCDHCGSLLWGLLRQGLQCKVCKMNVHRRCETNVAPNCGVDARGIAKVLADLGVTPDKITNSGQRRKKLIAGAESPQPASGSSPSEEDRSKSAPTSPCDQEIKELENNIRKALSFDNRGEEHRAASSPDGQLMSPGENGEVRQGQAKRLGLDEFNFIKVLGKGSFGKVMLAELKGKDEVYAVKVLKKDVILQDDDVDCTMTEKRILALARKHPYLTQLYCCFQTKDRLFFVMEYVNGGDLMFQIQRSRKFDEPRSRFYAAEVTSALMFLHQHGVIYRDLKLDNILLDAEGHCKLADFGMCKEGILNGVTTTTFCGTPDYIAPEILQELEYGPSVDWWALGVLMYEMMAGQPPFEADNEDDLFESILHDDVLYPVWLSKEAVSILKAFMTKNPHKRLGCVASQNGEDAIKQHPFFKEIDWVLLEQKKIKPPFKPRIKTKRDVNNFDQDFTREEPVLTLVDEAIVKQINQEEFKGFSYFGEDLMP
The test is described as follows: Inhibition of PKCepsilon. Further details: scale not given: the % may be the effect or the level left.

Test [10] addresses T3, MAP kinase-activated protein kinase 5 (Homo sapiens) (UniProt Q8IW41).
T3 sequence (whole entry): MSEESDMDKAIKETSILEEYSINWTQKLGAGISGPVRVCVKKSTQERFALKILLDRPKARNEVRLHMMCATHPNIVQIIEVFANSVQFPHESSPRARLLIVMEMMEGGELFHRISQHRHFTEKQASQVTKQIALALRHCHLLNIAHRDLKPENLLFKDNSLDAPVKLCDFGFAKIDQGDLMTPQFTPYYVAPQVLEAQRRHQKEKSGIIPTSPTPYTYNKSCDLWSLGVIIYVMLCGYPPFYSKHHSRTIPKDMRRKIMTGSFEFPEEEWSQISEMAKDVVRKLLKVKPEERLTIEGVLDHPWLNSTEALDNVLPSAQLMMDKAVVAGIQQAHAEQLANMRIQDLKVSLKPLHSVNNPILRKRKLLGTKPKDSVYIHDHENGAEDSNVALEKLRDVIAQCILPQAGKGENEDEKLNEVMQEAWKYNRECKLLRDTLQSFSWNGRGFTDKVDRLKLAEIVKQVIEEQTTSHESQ
As to the kind of experiment: Inhibition of PRAK, MAPK5. On the set-up: scale not given: the % may be the effect or the level left.

The target in test [11] is Tyrosine-protein kinase Lyn (Mus musculus) (UniProt P25911). The test is described as follows: Inhibition of Protein tyrosine kinase Lyn. Further details: scale not given: the % may be the effect or the level left.
Sequence of Tyrosine-protein kinase Lyn (Mus musculus) (P25911 whole entry): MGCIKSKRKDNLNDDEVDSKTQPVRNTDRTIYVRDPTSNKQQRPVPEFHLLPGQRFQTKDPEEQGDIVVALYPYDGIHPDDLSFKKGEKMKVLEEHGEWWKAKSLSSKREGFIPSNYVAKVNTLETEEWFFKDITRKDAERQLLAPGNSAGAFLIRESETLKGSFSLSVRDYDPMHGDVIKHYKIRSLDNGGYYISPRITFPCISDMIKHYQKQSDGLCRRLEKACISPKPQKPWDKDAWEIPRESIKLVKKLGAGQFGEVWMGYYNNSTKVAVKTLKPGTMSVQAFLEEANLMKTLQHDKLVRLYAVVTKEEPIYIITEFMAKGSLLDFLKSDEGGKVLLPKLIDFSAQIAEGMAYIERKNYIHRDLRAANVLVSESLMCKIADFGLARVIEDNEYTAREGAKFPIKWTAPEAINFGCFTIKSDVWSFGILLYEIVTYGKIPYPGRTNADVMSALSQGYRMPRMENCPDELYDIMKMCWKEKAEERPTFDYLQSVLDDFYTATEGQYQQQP
For test [12], the target named is Rho-associated protein kinase 2 (Homo sapiens) (UniProt O75116). As to the kind of experiment: (§1) Inhibition of ROCK-II. Further details: scale not given: the % may be the effect or the level left.
Sequence of Rho-associated protein kinase 2 (Homo sapiens) (O75116 whole entry, looked up): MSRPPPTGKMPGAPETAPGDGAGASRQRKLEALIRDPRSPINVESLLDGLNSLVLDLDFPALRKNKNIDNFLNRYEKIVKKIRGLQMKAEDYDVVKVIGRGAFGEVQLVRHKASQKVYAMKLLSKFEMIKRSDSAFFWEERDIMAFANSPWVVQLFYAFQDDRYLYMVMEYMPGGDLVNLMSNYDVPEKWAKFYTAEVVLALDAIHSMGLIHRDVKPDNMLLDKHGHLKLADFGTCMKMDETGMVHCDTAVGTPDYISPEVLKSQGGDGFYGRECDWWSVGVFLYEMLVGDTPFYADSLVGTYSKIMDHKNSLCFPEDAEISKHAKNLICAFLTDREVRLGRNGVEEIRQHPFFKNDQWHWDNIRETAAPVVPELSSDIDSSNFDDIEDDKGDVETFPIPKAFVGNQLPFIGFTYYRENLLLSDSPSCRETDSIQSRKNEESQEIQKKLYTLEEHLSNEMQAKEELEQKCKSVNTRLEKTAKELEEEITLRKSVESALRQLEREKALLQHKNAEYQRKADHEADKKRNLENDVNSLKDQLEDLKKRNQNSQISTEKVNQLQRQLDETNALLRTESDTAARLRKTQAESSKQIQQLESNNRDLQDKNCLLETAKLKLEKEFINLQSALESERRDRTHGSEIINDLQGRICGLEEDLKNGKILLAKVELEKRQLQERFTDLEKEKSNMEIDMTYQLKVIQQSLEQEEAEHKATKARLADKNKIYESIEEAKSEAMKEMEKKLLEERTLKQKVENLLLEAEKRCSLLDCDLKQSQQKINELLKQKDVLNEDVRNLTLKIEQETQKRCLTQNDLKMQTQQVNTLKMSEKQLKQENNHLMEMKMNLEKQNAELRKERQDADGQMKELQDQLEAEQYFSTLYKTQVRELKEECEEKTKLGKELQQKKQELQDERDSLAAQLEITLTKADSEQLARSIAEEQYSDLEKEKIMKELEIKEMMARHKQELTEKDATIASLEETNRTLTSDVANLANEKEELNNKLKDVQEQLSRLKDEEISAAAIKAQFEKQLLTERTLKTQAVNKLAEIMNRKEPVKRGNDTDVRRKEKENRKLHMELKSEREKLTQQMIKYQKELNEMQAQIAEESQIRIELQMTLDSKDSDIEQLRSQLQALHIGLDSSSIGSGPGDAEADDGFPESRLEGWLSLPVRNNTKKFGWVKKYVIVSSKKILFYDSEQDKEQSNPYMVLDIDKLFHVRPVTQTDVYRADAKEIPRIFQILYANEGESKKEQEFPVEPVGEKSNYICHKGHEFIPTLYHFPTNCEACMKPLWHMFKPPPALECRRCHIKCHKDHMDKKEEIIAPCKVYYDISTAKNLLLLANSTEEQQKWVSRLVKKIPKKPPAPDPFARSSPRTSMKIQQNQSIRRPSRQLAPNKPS
Test [13] has as its target Rho-associated protein kinase 2 (Rattus norvegicus) (UniProt Q62868). The description is as §1. On the set-up: scale not given: the % may be the effect or the level left.
Test [14] addresses Ribosomal protein S6 kinase (P70S6K) (Homo sapiens) (UniProt Q9UBS0+P23443). The test is described as follows: Inhibition of p70 Ribosomal protein S6 kinase. Format: protein-complex assay. On the set-up: scale not given: the % may be the effect or the level left.
In test [15] the target is Tyrosine-protein kinase SYK (Homo sapiens) (UniProt P43405). As to the kind of experiment: Inhibition of Syk protein tyrosine kinase. On the set-up: scale not given: the % may be the effect or the level left.
Test [16] concerns the target Mitogen-activated protein kinase 8 (Homo sapiens) (UniProt P45983). The test is described as follows: Inhibition of c-Jun N-terminal kinase 1-alpha 1. Further details: scale not given: the % may be the effect or the level left.
Test [17] has as its target T4, Tyrosine-protein kinase ZAP-70 (Homo sapiens) (UniProt P43403).
T4 sequence (whole entry): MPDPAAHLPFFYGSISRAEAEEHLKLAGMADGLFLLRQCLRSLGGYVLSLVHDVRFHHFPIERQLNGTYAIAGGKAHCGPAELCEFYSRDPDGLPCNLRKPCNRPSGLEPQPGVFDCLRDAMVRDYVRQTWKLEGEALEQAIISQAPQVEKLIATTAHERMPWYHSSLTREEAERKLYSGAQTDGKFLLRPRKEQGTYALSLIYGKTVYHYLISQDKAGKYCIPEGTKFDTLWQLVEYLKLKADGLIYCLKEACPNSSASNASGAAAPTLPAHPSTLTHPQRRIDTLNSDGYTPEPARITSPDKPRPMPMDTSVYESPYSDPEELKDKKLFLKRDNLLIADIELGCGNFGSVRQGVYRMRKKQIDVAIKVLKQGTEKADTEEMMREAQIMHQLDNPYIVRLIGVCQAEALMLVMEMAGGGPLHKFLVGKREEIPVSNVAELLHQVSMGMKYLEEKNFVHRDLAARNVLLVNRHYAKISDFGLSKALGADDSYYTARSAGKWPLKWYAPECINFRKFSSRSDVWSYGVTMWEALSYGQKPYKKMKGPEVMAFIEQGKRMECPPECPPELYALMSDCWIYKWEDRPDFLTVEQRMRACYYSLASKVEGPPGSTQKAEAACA
The test is described as follows: Inhibition of Zeta-chain (TCR) associated protein kinase 70 kDa (ZAP70). Further details: scale not given: the % may be the effect or the level left.

Sequence of Mitogen-activated protein kinase 8 (Homo sapiens) (P45983 whole entry): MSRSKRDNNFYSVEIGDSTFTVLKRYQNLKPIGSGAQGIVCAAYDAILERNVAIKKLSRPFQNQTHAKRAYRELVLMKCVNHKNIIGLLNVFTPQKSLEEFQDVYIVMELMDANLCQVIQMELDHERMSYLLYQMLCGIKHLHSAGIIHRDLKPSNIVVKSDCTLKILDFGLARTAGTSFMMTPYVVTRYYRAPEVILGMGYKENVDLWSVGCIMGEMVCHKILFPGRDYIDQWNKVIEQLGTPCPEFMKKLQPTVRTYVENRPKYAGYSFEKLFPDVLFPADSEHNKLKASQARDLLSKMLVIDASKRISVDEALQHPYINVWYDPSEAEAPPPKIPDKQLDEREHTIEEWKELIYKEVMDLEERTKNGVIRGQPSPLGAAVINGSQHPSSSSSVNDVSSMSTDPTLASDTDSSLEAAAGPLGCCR
Sequence of Glycogen synthase kinase-3 beta (P49841 whole entry, looked up): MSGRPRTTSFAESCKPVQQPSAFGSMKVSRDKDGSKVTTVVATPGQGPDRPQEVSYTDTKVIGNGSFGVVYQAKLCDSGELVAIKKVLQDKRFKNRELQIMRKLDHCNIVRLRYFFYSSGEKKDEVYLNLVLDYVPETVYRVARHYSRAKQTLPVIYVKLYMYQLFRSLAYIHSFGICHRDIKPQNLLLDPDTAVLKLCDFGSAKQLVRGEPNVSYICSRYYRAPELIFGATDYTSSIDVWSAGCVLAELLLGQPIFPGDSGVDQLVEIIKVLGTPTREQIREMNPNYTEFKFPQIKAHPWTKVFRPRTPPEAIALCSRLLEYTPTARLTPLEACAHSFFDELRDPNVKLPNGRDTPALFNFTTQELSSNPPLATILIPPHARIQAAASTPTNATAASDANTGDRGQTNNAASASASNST
Sequence of Fibroblast growth factor receptor 3 (Homo sapiens) (P22607 23-806 limits assumed): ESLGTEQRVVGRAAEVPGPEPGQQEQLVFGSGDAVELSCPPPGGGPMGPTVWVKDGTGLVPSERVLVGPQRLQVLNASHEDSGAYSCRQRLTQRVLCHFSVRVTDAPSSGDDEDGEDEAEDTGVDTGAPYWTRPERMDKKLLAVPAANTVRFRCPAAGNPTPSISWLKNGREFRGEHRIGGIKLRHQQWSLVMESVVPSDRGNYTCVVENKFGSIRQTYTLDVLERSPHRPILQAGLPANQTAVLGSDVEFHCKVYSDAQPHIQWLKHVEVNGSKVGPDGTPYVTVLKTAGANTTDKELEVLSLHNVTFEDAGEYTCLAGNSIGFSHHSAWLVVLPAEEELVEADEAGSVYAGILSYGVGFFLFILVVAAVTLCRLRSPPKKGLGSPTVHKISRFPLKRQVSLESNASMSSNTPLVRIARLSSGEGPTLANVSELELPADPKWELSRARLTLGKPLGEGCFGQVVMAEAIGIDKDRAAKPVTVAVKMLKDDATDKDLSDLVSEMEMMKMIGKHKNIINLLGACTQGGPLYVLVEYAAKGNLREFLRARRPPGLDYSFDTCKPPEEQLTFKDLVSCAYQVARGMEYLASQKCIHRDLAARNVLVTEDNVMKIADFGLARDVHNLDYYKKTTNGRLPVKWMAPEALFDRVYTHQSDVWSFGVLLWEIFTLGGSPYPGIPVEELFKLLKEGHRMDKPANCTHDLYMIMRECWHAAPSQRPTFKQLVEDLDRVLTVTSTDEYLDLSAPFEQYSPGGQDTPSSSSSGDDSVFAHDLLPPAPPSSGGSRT

One may read the IC50 as the point on the concentration scale where inhibition reaches its midpoint. Take `COCCCn1cc(C2=C(c3ccccc3O)C(=O)NC2=O)c2cccnc21`: the IC50 in test [1] amounted to 0.43 µM. Further, the Activity in [2] came out at 79%; in test [3] it was 94%; in test [4] it was 1%; in test [5] it was 88%; in [6], 94%; in test [7], 71%. Further, the Activity in test [8] was found to be 46%; in test [9] it was 49%; in [10], 82%; in [11], 81%; in test [12] it was 100%; in test [13], 94%. In addition, the Activity worked out at 87% in test [14], 86% in test [15], 75% in test [16] and 100% in test [17].
Compound `COc1ccccc1C1=C(c2cn(CCCNC(=O)OC(C)(C)C)c3ncccc23)C(=O)NC1=O` gave an IC50 in test [1] of 0.068 µM. In addition, the Activity was 83% in test [2]; 63% in [3]; 0% in [4]; 94% in test [5]; 100% in test [6]; 101% in test [7]. The Activity in test [8] came to 38%; in test [9], 54%; in test [10], 57%; in [11], 20%; in [12], 78%; in [13], 91%. The Activity is 82% in [14], 88% in test [15], 81% in test [16] and 112% in test [17].
`O=C1NC(=O)C(c2cn(CCCO)c3ncccc23)=C1c1ncc(C(F)(F)F)cc1Cl` yielded an IC50 in test [1] of 2.8 µM. In addition, the Activity in test [2] came to 64%; in [3] it was 89%; in test [4] it was 3%; in test [5], 95%; in test [6], 74%; in [7], 68%. Besides, the Activity was 70% in test [8]; 67% in test [9]; 59% in test [10]; 85% in [11]; 90% in test [12]; 97% in [13]. Further, the Activity in [14] came out at 88%; in test [15], 76%; in test [16], 80%; in [17], 91%.
